{
  "source": "paper PMC8504577",
  "about": "“Evaluation of a Clinically Relevant Drug–Drug Interaction Between Rosuvastatin and Clopidogrel and the Risk of Hepatotoxicity” (Frontiers in Pharmacology, 2021)",
  "key": {"[1]": {"parameters": "method as in Tornio et al. (2014)", "conditions": "ref Tornio et al. (2014); cited from earlier work"}, "[2]": {"system": "OATP1B1", "conditions": "ref Tamraz et al. (2013), cited from earlier work"}, "[3]": {"conditions": "for Imax,u, unbound steady-state plasma peak concentration: fu×I1"}, "[4]": {"conditions": "cited from earlier work"}, "[5]": {"assay": "Plasma pharmacokinetic study in rats", "conditions": "for AUC0–12h: rat plasma", "protocol": "For the plasma pharmacokinetic study, 16 rats were randomly assigned into four groups (n = 4, each group, groups I to IV) and received oral (p.o.) administrations as oral gavage of CP (27 mg/kg) or the same volume of vehicle control for 20 days. Then, the rats were made to fast overnight before dosing but with free access to water. On day 21, rats in group I were treated with a p.o. dose as oral gavage of CP at 27 mg/kg and a single intravenous (i.v.) dose of RSV at 5 mg/kg. Rats in group II were treated with a p.o. dose as oral gavage of vehicle control and a single i.v. dose of RSV at 5 mg/kg. Rats in group Ⅲ were treated with a p.o. dose as oral gavage of CP at 27 mg/kg and a p.o. dose as oral gavage of RSV at 5 mg/kg. Rats in group Ⅳ were treated with a p.o. dose as oral gavage of vehicle control and a p.o. dose as oral gavage of RSV at 5 mg/kg. Blood samples (0.15 ml) were collected at 0, 1, 2, 5, 15, 30, 60, 120, 180, 360, 480, 600, and 720 min after administration of the i.v. dose of the RSV group and at 0, 5, 30, 60, 120, 180, 360, 480, 600, and 720 min for the p.o. dose as oral gavage of the RSV group. After each sampling, a volume of 0.15 ml physiologic saline solutions was administered to sustain isotonic fluid balance. Plasma samples were harvested by using a centrifuge and then stored at −80°C until analysis by LC-MS/MS.\nA Shimadzu LC-30AD liquid chromatography system (Shimadzu, Kyoto, Japan) and an API4000 triple quadruple tandem mass spectrometer (Applied Biosystems/Sciex, Framingham, MA, United States) coupled with an ESI source was used for the LC-MS/MS analysis of in vivo samples. The separation was carried out on an Agilent Extend C18 column (1.8 µm, 4.6 mm × 30 mm, Agilent Technologies). The mobile phase consisting of acetonitrile (A) and water (B: 1 mM ammonium acetate and 1% (V/V) formic acid). […] The flow rate was 1 ml/min and the gradient elution method was as follows: 0.01 min (10% A)-0.4 min (10% A), 0.8 min (95% A)-2.0 min (95% A), and 2.3 min (10% A)-2.5 min (stop).\n(§1) Phoenix WinNonlin® 7.1 (Pharsight Corporation, Mountain View, CA, United States) was used to calculate the pharmacokinetic parameters by the noncompartmental method. IC50 values were obtained by a computer-generated nonlinear least squares fit using GraphPad Prism 8.1 (GraphPad Software, San Diego, CA, United States). Statistical analysis was performed using SPSS ver. 22.0 (IBM, Chicago, IL, United States). The results are presented as mean ± S.D., unless otherwise stated. After testing for the homogeneity of variance, statistical analysis was performed with a one-way ANOVA followed by the LSD post hoc test or unpaired Student’s t-test. A probability (p) of less than 0.05, 0.01, and 0.001 was considered to be statistically significant, highly significant, and extremely significant, respectively."}, "[6]": {"conditions": "human; ref Ayalasomayajula et al., 2007; Itkonen et al., 2015; cited from earlier work"}, "[7]": {"biological_target": "T1, OATP1B1 (Homo sapiens, UniProt Q9Y6L6)", "T1 sequence (Q9Y6L6 1-691)": "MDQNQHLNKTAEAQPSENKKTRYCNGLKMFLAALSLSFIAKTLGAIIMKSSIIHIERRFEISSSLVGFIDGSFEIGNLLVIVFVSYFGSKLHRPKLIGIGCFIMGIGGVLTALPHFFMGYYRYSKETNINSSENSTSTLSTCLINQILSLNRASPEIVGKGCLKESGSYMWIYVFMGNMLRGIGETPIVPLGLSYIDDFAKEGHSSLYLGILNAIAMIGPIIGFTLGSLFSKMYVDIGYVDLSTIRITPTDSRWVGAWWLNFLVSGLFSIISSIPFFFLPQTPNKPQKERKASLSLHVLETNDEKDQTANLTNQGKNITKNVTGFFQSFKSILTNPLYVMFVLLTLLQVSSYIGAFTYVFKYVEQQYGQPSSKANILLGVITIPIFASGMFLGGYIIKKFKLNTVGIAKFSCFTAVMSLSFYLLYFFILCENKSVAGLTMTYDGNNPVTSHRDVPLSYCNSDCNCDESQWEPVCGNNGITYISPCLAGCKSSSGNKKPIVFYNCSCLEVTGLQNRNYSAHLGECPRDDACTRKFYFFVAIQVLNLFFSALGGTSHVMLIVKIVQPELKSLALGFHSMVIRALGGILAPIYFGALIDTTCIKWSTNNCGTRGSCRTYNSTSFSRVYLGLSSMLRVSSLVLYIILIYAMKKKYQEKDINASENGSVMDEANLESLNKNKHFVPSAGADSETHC", "assay": "cell-based", "conditions": "100 μM", "protocol": "(§2) The OATP1B1, OATP1B3, and mock cells were cultured in the DMEM medium containing 10% fetal bovine serum, penicillin–streptomycin solution (100 U/mL and 0.1 mg/ml), and 0.5 mg/ml geneticin at 37°C in the presence of 5% CO2. The cells were seeded in a 24-well plate at a density of 4×10^5 cells/well and grown for 80–90% confluence. […] After washing the cells three times with transporter buffer at 4°C, the cells were lysed with liquid nitrogen. The lysates were precipitated with methanol and centrifuged at 12,000 rpm at 4°C for 5 min. The supernatant was analyzed by LC-MS/MS. Protein concentration was determined using the Pierce® BCA Protein Assay Kit. All experiments were performed in triplicate.\nas §1"}, "[8]": {"biological_target": "T2, OATP1B3 (Homo sapiens, UniProt Q9NPD5)", "T2 sequence (Q9NPD5 1-702)": "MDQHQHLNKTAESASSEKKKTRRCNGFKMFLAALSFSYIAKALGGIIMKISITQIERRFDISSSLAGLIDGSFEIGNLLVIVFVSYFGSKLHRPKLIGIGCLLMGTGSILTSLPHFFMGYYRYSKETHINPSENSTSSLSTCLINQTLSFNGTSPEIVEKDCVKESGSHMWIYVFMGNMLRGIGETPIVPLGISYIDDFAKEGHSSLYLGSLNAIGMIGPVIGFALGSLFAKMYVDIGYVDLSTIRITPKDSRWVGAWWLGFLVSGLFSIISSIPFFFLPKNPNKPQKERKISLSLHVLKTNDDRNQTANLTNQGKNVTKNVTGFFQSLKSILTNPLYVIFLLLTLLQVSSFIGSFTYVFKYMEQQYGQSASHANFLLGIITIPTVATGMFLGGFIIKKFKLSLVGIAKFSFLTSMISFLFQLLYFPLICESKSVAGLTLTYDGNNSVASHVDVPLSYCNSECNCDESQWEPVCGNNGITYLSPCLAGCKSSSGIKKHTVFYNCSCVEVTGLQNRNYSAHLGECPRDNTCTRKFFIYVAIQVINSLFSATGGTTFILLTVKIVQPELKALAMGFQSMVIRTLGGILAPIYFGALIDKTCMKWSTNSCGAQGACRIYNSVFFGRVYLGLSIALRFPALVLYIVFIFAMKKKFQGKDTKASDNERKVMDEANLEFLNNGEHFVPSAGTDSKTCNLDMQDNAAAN", "assay": "cell-based", "conditions": "100 μM", "protocol": "as §2, §1"}, "[9]": {"system": "human primary hepatocytes", "assay": "Cytotoxicity (MTT, AST, LDH) in cryopreserved human hepatocytes", "type": "cell-based", "conditions": "24 and 96 h incubation", "protocol": "Cytotoxicity was determined with MTT assay in cryopreserved human hepatocytes. Thawing and plating of cryopreserved hepatocytes were carried out according to the manufacturer’s protocol. […] 11 μL of 5 mg/ml MTT was added to each well of the plate, and then the plate was incubated at 37°C for 3–4 h. After the medium was aspirated, 150 μL of DMSO was added to dissolve the formazan. The absorbance at 570 nm was measured and corrected for background absorption at 690 nm using a SpectraMax® i3 plate reader (Molecular Devices, Silicon Valley, CA, United States). AST and LDH levels in the medium of parallel processed plates were measured by commercially available assay kits. […] All experiments were performed in triplicate."}, "[10]": {"conditions": "substrate cerivastatin, read-out: IC50 OTAP1B1 (cerivastatin, CER, as substrate)"}, "[11]": {"conditions": "substrate estrone sulfate, read-out: IC50 OTAP1B1 (estrone sulfate, ES, as substrate)"}},
  "note": "Like-named read-outs stand apart in the source and are kept apart here.",
  "data": [
    {"smiles": "COC(=O)[C@H](c1ccccc1Cl)N1CCC2SC(=O)C=C2C1", "note": "(stereo partly drawn) [2-Oxo clopidogrel, 2-oxo clopidogrel]", "values": [
      {"measurement": "fu, fraction unbound in human plasma", "setting": "[1]", "value": "0.02 [Tornio et al. (2014)]"},
      {"measurement": "IC50", "setting": "[2]; [10]", "value": 8.18, "unit": "µM"},
      {"measurement": "IC50", "setting": "[2]; [11]", "value": 8.97, "unit": "µM"},
      {"measurement": "I1, peak plasma concentration at steady state", "setting": "[3]; 75 mg CP, calculated from I1 at 300 mg assuming linear pharmacokinetics", "value": 0.004, "unit": "µM"},
      {"measurement": "Imax,u, unbound steady-state plasma peak concentration", "setting": "[3]; 75 mg CP", "value": 0.00008, "unit": "µM"},
      {"measurement": "Imax,u, unbound steady-state plasma peak concentration", "setting": "[3]; 300 mg CP", "value": 0.0003, "unit": "µM"},
      {"measurement": "I1, peak plasma concentration at steady state", "setting": "[4]; 300 mg CP, ref Kim et al. (2016)", "value": "0.016 [Kim et al. (2016)] μM"}
    ]},
    {"smiles": "O=C(O)[C@H](c1ccccc1Cl)N1CCc2sccc2C1", "note": "[CPC, clopidogrel carboxylic acid]", "values": [
      {"measurement": "fu, fraction unbound in human plasma", "setting": "[1]", "value": "0.06 [Tornio et al. (2014)]"},
      {"measurement": "Elimination half-life", "setting": "[4]; ref Sanofi-Aventis, 2011", "value": 8, "unit": "h"},
      {"measurement": "AUC0–12h", "setting": "[5]; Group I: single i.v. RSV 5 mg/kg + multiple p.o. CP 27 mg/kg", "value": "299,764 ± 153,504.1 ng×h/mL"},
      {"measurement": "AUC0–12h", "setting": "[5]; Group III: single p.o. RSV 5 mg/kg + multiple p.o. CP 27 mg/kg", "value": "230,181 ± 109,005.9 ng×h/mL"},
      {"measurement": "Plasma exposure", "setting": "[5]; rats, at 12 h post-dose", "value": "remains high"}
    ]},
    {"smiles": "O=C(O)[C@H]1O[C@@H](OC(=O)[C@H](c2ccccc2Cl)N2CCc3sccc3C2)[C@H](O)[C@@H](O)[C@@H]1O", "note": "[Clopidogrel acyl glucuronide, clopidogrel acyl-β-D-glucuronide]", "values": [
      {"measurement": "fu, fraction unbound in human plasma", "setting": "[1]", "value": "0.1 [Tornio et al. (2014)]"},
      {"measurement": "IC50", "setting": "[2]; [10]", "value": 10.9, "unit": "µM"},
      {"measurement": "IC50", "setting": "[2]; [11]", "value": 33.5, "unit": "µM"},
      {"measurement": "Imax,u, unbound steady-state plasma peak concentration", "setting": "[3]; 75 mg CP", "value": 0.172, "unit": "µM"},
      {"measurement": "Imax,u, unbound steady-state plasma peak concentration", "setting": "[3]; 300 mg CP", "value": 0.477, "unit": "µM"},
      {"measurement": "I1, peak plasma concentration at steady state", "setting": "[4]; 75 mg CP, ref Itkonen et al. (2015)", "value": "1.72 [Itkonen et al. (2015)] μM"},
      {"measurement": "I1, peak plasma concentration at steady state", "setting": "[4]; 300 mg CP, ref Itkonen et al. (2015)", "value": "4.77 [Itkonen et al. (2015)] μM"}
    ]},
    {"smiles": "CC(C)n1c(/C=C/C(O)CC(O)CC(=O)O)c(-c2ccc(F)cc2)c2ccccc21", "note": "(stereo not drawn) [fluvastatin]", "values": [
      {"measurement": "Effect of concomitant CP on plasma concentration of the statin", "setting": "[6]", "value": "did not change"}
    ]},
    {"smiles": "O=C(O)C[C@H](O)C[C@H](O)/C=C/c1c(C2CC2)nc2ccccc2c1-c1ccc(F)cc1", "note": "[pitavastatin]", "values": [
      {"measurement": "Effect of concomitant CP on plasma concentration of the statin", "setting": "[6]", "value": "did not change"}
    ]},
    {"smiles": "CO[C@H]1/C=C/O[C@@]2(C)Oc3c(C)c(O)c4c(O)c(c(/C=N/N5CCN(C)CC5)c(O)c4c3C2=O)NC(=O)/C(C)=C\\C=C\\[C@H](C)[C@H](O)[C@@H](C)[C@@H](O)[C@@H](C)[C@H](OC(C)=O)[C@@H]1C", "note": "[rifampin]", "values": [
      {"measurement": "Inhibition of RSV uptake by OATP1B1 cells (positive control)", "setting": "[7]", "value": "significantly inhibited"},
      {"measurement": "Inhibition of RSV uptake by OATP1B3 cells (positive control)", "setting": "[8]", "value": "significantly inhibited"}
    ]},
    {"smiles": "CC/C(=C(\\c1ccccc1)c1ccc(OCCN(C)C)cc1)c1ccccc1", "note": "[tamoxifen]", "values": [
      {"measurement": "Cytotoxicity (MTT)", "setting": "[9]", "value": "Dose-dependent cytotoxicity"}
    ]}
  ]
}
